This note sets out measurements from publication PMC7112848 (Journal of Virological Methods, 2008).

The assay has as its target rgH1N1 NA (Influenza A virus, UniProt Q6DPL2). In kind it is biochemical, reverse-genetic influenza A virus rgH1N1.

Structures are written as SMILES.

Chain of rgH1N1 NA (Q6DPL2 whole entry, looked up): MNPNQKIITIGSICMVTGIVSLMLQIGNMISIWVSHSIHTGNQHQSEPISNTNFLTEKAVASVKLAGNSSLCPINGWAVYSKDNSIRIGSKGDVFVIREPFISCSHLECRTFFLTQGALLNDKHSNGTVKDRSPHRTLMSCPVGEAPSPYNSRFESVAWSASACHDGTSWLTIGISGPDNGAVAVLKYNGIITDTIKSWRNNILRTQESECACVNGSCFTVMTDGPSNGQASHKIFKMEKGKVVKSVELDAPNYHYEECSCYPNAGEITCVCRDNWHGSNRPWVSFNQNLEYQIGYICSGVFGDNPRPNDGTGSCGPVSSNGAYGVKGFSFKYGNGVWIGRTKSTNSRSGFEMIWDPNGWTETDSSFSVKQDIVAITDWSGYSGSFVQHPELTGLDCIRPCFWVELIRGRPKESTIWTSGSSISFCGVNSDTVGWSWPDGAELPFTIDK

For `CC(=O)N[C@@H]1[C@@H](O)C[C@](Oc2ccc3c(C)cc(=O)oc3c2)(C(=O)O)O[C@H]1C(O)[C@H](O)CO` (stereo partly drawn) [MUNANA, 2′-(4-methylumbelliferyl)-α-D-N-acetylneuraminic acid], the Km turned out to be 18 ± 2 µM.

What is called Km is the substrate concentration at which the rate is half of its maximum.
